Results as given in US9868746B2, “Substituted 5-aminothieno[2,3-C]pyridazine-6-carboxamide analogs as positive allosteric modulators of the muscarinic acetylcholine receptor M4” (Vanderbilt University, priority 2012, dated 2018).
Like-named read-outs stand apart in the source and are kept apart here.

Target: T1, mAChR M4 (Homo sapiens, UniProt P08173)
T1 construct: expressed in transfected cells; host or cells: CHO-K1 cells stably transfected with M4 cDNA and chimeric G-protein Gqi5
T1 sequence (P08173 1-479): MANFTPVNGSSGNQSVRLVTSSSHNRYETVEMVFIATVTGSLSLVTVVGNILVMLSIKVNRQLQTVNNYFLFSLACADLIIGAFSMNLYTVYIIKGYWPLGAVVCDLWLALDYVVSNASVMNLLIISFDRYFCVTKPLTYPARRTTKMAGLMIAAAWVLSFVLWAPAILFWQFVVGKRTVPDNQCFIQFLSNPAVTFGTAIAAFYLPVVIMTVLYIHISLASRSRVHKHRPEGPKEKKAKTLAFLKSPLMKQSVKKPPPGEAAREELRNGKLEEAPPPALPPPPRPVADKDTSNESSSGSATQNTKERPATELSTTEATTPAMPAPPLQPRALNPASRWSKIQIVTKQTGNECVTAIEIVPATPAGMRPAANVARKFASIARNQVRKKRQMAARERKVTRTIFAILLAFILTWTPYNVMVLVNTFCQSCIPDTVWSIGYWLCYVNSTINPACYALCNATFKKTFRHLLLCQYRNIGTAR
Experiment: mAChR M4 cell-based functional assay (calcium mobilization, potentiation of EC20 acetylcholine response)
Details: for Emax at 30 µM / Emax (%)*: % ACh maximum at 30 μM

[1] = mAChR M4 cell-based functional assay, >10,000 estimated for low potency compounds without plateau, read-out: EC50

SMILES	Emax at 30 µM [%]	EC50 [1] [nM]	Emax (%)* [%]	EC50 (EC50 (nM)) [nM]
Nc1c(C(=O)NC2CC2)sc2nnccc12 [Example B1]	40	> 10000		
COc1ccc(CNC(=O)c2sc3nnccc3c2N)cc1 [Example B2]	61	> 10000		
Cc1nnc2sc(C(=O)NCc3ncccn3)c(N)c2c1C [Example B3]	46	> 10000		
Cc1nnc2sc(C(=O)NCc3cnccn3)c(N)c2c1C [Example B10]	82	> 10000		
Cc1nnc2sc(C(=O)NCc3nccs3)c(N)c2c1C [Example B11]	82	1500		
Nc1c(C(=O)NCc2cccc(F)c2F)sc2nnccc12 [Example B18]	60	> 10000		
Nc1c(C(=O)NCc2ccccc2)sc2nnccc12 [Example B19]	53	> 10000		
CS(=O)(=O)c1ccc(CNC(=O)c2sc3nnccc3c2N)cc1 [Example B20]	41	> 10000		
Nc1c(C(=O)NCc2cccc(F)c2)sc2nnccc12 [Example B21]	59	> 10000		
Nc1c(C(=O)NCc2ccc3c(c2)OCO3)sc2nnccc12 [Example B22]	63	2800		
Cc1nnc2sc(C(=O)NCC(C)(C)O)c(N)c2c1C [Example B25]	56	> 10000		
CSc1ccc(CNC(=O)c2sc3nnc(C)c(C)c3c2N)cc1 [Example B26]	76			11
Cc1nnc2sc(C(=O)NCc3ccc([S+](C)[O-])cc3)c(N)c2c1C (stereo not shown) [Example B34]	82			140
Nc1c(C(=O)NCc2ccncc2)sc2nnc(-c3ccccc3)c(-c3ccccc3)c12 [Example B39]	40	> 10000		
COc1ccc(CNC(=O)c2sc3nnc(-c4ccccc4)c(-c4ccccc4)c3c2N)cc1 [Example B40]	47	2700		
CS(=O)(=O)c1ccc(CNC(=O)c2sc3nnc(-c4ccccc4)c(-c4ccccc4)c3c2N)cc1 [Example B41]	48	> 10000		
Cc1nnc2sc(C(=O)NCc3cccc(S(C)(=O)=O)c3)c(N)c2c1C [Example B44]	75			420
Cc1nnc2sc(C(=O)NCc3ccc(S(=O)(=O)C(C)C)cc3)c(N)c2c1C [Example B48]	77			48
Nc1c(C(=O)NCc2ccc3c(c2)OCO3)sc2nnc3c(c12)CCCC3 [Example B50]	49	61		
Nc1c(C(=O)NCc2ccccc2)sc2nnc3c(c12)CCCC3 [Example B51]	51	130		
COc1ccc(CNC(=O)c2sc3nnc4c(c3c2N)CCCC4)cc1 [Example B52]	54	77		
Nc1c(C(=O)NCc2ccc3c(c2)OC(F)(F)O3)sc2nnc3c(c12)CCCC3 [Example B53]	42	170		
Nc1c(C(=O)NCC2CC2)sc2nnc3c(c12)CCCC3 [Example B54]	37	790		
COc1ccc(C2CC2NC(=O)c2sc3nnc4c(c3c2N)CCCC4)cc1 (stereo not shown) [Example B55]	48	47		
Nc1c(C(=O)NCc2ccc3c(c2)OCCO3)sc2nnc3c(c12)CCCC3 [Example B56]	54	72		
Nc1c(C(=O)NCc2cccc(F)c2F)sc2nnc3c(c12)CCCC3 [Example B57]	47	100		
CS(=O)(=O)c1ccc(CNC(=O)c2sc3nnc4c(c3c2N)CCCC4)cc1 [Example B58]	64	240		

Now from value to molecule, other results behind:

Emax at 30 µM [%]	EC50 [1] [nM]	Emax (%)* [%]	SMILES	EC50 (EC50 (nM)) [nM]
79	7.5		COc1ccc([C@H]2C[C@@H]2NC(=O)c2sc3nnc(C)c(C)c3c2N)cc1 (single isomer, unassigned) [Example B31]	
73	300		COc1ccc([C@@H]2C[C@H]2NC(=O)c2sc3nnc(C)c(C)c3c2N)cc1 (single isomer, unassigned) [Example B32]	
62	18		Cc1nnc2sc(C(=O)N[C@H]3C[C@@H]3c3ccc(S(C)(=O)=O)cc3)c(N)c2c1C (single isomer, unassigned) [Example B110]	
60	240		Cc1nnc2sc(C(=O)N[C@@H]3C[C@H]3c3ccc(S(C)(=O)=O)cc3)c(N)c2c1C (single isomer, unassigned) [Example B111]	
75	19		Cc1nnc2sc(C(=O)NCc3ccc(C(C)(O)C(F)(F)F)cc3)c(N)c2c1C (single isomer, unassigned) [Example B186]	
	20	84	Cc1nnc2sc(C(=O)NCc3ccc(C(C)(O)C(F)(F)F)cc3)c(N)c2c1C (single isomer, unassigned) [Example B187]	
63	120		Cc1nnc2sc(C(=O)NCc3ccc([S+]([O-])C(F)F)cc3)c(N)c2c1C (single isomer, unassigned) [Example B491]	
	500	70	Cc1nnc2sc(C(=O)NCc3ccc([S+]([O-])C(F)F)cc3)c(N)c2c1C (single isomer, unassigned) [Example B510]	
96	640		Cc1cc(CNC(=O)c2sc3nnc(C)c(C)c3c2N)ccn1 [Example B4]	
86	180		Cc1nnc2sc(C(=O)NCc3cc(F)ccc3F)c(N)c2c1C [Example B5]	
89	500		Cc1nnc2sc(C(=O)NCC3CC3)c(N)c2c1C [Example B6]	
97	140		Cc1nnc2sc(C(=O)NCc3cccc(F)c3)c(N)c2c1C [Example B7]	
97	260		Cc1nnc2sc(C(=O)NC3CC3)c(N)c2c1C [Example B8]	
97	170		Cc1nnc2sc(C(=O)NCc3ccccc3)c(N)c2c1C [Example B9]	
90	93		Cc1nnc2sc(C(=O)NCc3ccc4c(c3)OCO4)c(N)c2c1C [Example B12]	
58	1000		Cc1nnc2sc(C(=O)NCc3ccccn3)c(N)c2c1C [Example B13]	
100	320		Cc1nnc2sc(C(=O)NCc3ccncc3)c(N)c2c1C [Example B14]	
97	100		Cc1nnc2sc(C(=O)NCc3cccc(F)c3F)c(N)c2c1C [Example B15]	
99	250		COc1ccc(CNC(=O)c2sc3nnc(C)c(C)c3c2N)cc1 [Example B16]	

Emax at 30 µM [%]	EC50 [1] [nM]	Emax (%)* [%]	SMILES	EC50 (EC50 (nM)) [nM]
83	> 10000		Cc1nnc2sc(C(=O)NCc3ccncn3)c(N)c2c1C [Example B17]	
83	450		Cc1nnc2sc(C(=O)NCc3ccc(S(C)(=O)=O)cc3)c(N)c2c1C [Example B23]	
80	520		Cc1nnc2sc(C(=O)NC3COC3)c(N)c2c1C [Example B24]	
76	42		Cc1nnc2sc(C(=O)NCc3ccc4c(c3)CCO4)c(N)c2c1C [Example B27]	
54	> 10000		Cc1nnc2sc(C(=O)NCCN3CCOCC3)c(N)c2c1C [Example B28]	
76	30		Cc1nnc2sc(C(=O)NCc3ccc4c(c3)OCCO4)c(N)c2c1C [Example B29]	
76	14		COc1ccc(C2CC2NC(=O)c2sc3nnc(C)c(C)c3c2N)cc1 (stereo not shown) [Example B30]	
73	37		Cc1nnc2sc(C(=O)NCc3ccc(S(C)(=O)=O)c(F)c3)c(N)c2c1C [Example B33]	
77	840		Cc1nnc2sc(C(=O)NC3CCOC3)c(N)c2c1C (stereo not shown) [Example B35]	
29	1700		Cc1nnc2sc(C(=O)Nc3ccccn3)c(N)c2c1C [Example B36]	
68	32		[2H]C([2H])(NC(=O)c1sc2nnc(C)c(C)c2c1N)c1ccc(OC)cc1 [Example B37]	
54	600		Cc1nnc2sc(C(=O)Nc3ccncc3)c(N)c2c1C [Example B38]	
76	26		Cc1nnc2sc(C(=O)NCc3ccc4c(c3)OC(F)(F)O4)c(N)c2c1C [Example B42]	
75	270		Cc1nnc2sc(C(=O)NCc3ccc4nonc4c3)c(N)c2c1C [Example B43]	
71	45		Cc1nnc2sc(C(=O)NCc3cc(F)c(F)cc3F)c(N)c2c1C [Example B45]	
38	> 10000		Cc1nnc2sc(C(=O)NC3CN(Cc4ccc(F)cc4)C3)c(N)c2c1C [Example B46]	
76	41		Cc1nnc2sc(C(=O)NCc3ccc(S(=O)(=O)C(C)(C)C)cc3)c(N)c2c1C [Example B47]	
64	48		CCS(=O)(=O)c1ccc(CNC(=O)c2sc3nnc(C)c(C)c3c2N)cc1 [Example B49]	
56	4100		Cc1nnc2sc(C(=O)N3CC(NCc4ccc(F)cc4)C3)c(N)c2c1C [Example B59]	
